Assay results published in patent publication US20240374598A1, “INHIBITORS OF HUMAN IMMUNODEFICIENCY VIRUS REPLICATION” (ViiV HEALTHCARE UK (NO.5) LIMITED, priority 2018, published 2024).

Key:
[1] = test system: recombinant NL4-3 virus (nef section replaced with Renilla luciferase gene) in MT-2 cells; assay: HIV cell culture assay (antiviral activity, luciferase readout); assay type: cell-based; settings: NL43, MT-2 cells infected for 4-5 days with recombinant NL4-3 Renilla luciferase virus
Method: HIV cell culture assay—MT-2 cells, 293T cells and the proviral DNA clone of NL4-3 virus were obtained from the NIH AIDS Research and Reference Reagent Program. MT-2 cells were propagated in RPMI 1640 media supplemented with 10% heat inactivated fetal bovine serum (FBS), […]. The 293T cells were propagated in DMEM media supplemented with 10% heat inactivated FBS, […]. A recombinant NL4-3 proviral clone, in which a section of the nef gene was replaced with the Renilla luciferase gene, was used to make the reference virus used in these studies. The recombinant virus was prepared through transfection of the recombinant NL4-3 proviral clone into 293T cells using Transit-293 Transfection Reagent from Mirus Bio LLC (Madison, WI). Supernatent was harvested after 2-3 days and the amount of virus present was titered in MT-2 cells using luciferase enzyme activity as a marker by measuring luciferase enzyme activity. Luciferase was quantitated using the EnduRen Live Cell Substrate from Promega (Madison, WI). Antiviral activities of compounds toward the recombinant virus were quantified by measuring luciferase activity in MT-2 cells infected for 4-5 days with the recombinant virus in the presence of serial dilutions of the compound.
The 50% effective concentration (EC50) was calculated by using the exponential form of the median effect equation where (Fa)=1/[1+(ED50/drug conc.)m] (Johnson VA, Byington RT. Infectivity Assay. In Techniques in HIV Research. ed. Aldovini A, Walker BD. 71-76. New York: Stockton Press. 1990). The 50% inhibitory concentration (EC50) was calculated by using the exponential form of the median effect equation where percent inhibition=1/[1+(EC50/drug concentration)m], where m is a parameter that reflects the slope of the concentration-response curve.

[2] = Compound cytotoxicity, XTT-based colorimetric assay; assay type: cell-based; settings: human; uninfected MT2 cells, day 4, XTT assay
Method: Compound cytotoxicity and the corresponding CC50 values were determined using the same protocol as described in the antiviral assay except that uninfected cells were used. Cytotoxicity was assessed on day 4 in uninfected MT2 cells by using a XTT (2,3-bis[2-Methoxy-4-nitro-5-sulfophenyl]-2H-tetrazolium-5-carboxyanilide inner salt)-based colorimetric assay (Sigma-Aldrich, St Louis, Mo).

## Cc1ccc2c(=O)n(-c3ccc(Cl)c4c(NS(C)(=O)=O)nn(C)c34)c([C@H](Cc3cc(F)cc(F)c3)NC(=O)Cn3nc(C(F)F)c4c3C(F)(F)[C@@H]3C[C@H]43)nc2c1 [Example 15, N—((S)-1-(3-(4-chloro-1-methyl-3-(methylsulfonamido)-1H-indazol-7-yl)-7-methyl-4-oxo-3,4-dihydroquinazolin-2-yl)-2-(3,5-difluorophenyl)ethyl)-2-((3bS,4aR)-3-(difluoromethyl)-5,5-difluoro-3b,4,4a,5-tetrahydro-1H-cyclopropa[3,4]cyclopenta[1,2-c]pyrazol-1-yl)acetamide]
[1]
  EC50: 0.071 nM
[2]
  CC50 at 4 day: > 1000 nM

## CC(C)[C@H](C)Oc1ccc2c(=O)n(-c3ccc(Cl)c4c(NS(C)(=O)=O)nn(C)c34)c([C@H](Cc3cc(F)cc(F)c3)NC(=O)Cn3nc(C(F)F)c4c3C(F)(F)[C@@H]3C[C@H]43)nc2c1 [Example 13, N—((S)-1-(3-(4-chloro-1-methyl-3-(methylsulfonamido)-1H-indazol-7-yl)-7-(((S)-3-methylbutan-2-yl)oxy)-4-oxo-3,4-dihydroquinazolin-2-yl)-2-(3,5-difluorophenyl)ethyl)-2-((3bS,4aR)-3-(difluoromethyl)-5,5-difluoro-3b,4,4a,5-tetrahydro-1H-cyclopropa[3,4]cyclopenta[1,2-c]pyrazol-1-yl)acetamide]
[1]
  EC50: 0.239 nM
[2]
  CC50 at 4 day: > 1000 nM

## CC(C)Oc1ccc2c(=O)n(-c3ccc(Cl)c4c(NS(C)(=O)=O)nn(C)c34)c([C@H](Cc3cc(F)cc(F)c3)NC(=O)Cn3nc(C(F)F)c4c3C(F)(F)C3CC43)nc2n1 (stereo in doubt) [Example 38, N—((S)-1-(3-(4-chloro-1-methyl-3-(methylsulfonamido)-1H-indazol-7-yl)-7-isopropoxy-4-oxo-3,4-dihydropyrido[2,3-d]pyrimidin-2-yl)-2-(3,5-difluorophenyl)ethyl)-2-((3bS,4aR)-3-(difluoromethyl)-5,5-difluoro-3b,4,4a,5-tetrahydro-1H-cyclopropa[3,4]cyclopenta[1,2-c]pyrazol-1-yl)acetamide]
[1]
  EC50: 0.045 nM
[2]
  CC50 at 4 day: > 1000 nM

## Cn1nc(NS(C)(=O)=O)c2c(Cl)ccc(-n3c([C@H](Cc4cc(F)cc(F)c4)NC(=O)Cn4nc(C(F)F)c5c4C(F)(F)[C@@H]4C[C@H]54)nc4cc(C(F)(F)C(C)(C)C)ccc4c3=O)c21 [Example 29, N—((S)-1-(3-(4-chloro-1-methyl-3-(methylsulfonamido)-1H-indazol-7-yl)-7-(1,1-difluoro-2,2-dimethylpropyl)-4-oxo-3,4-dihydroquinazolin-2-yl)-2-(3,5-difluorophenyl)ethyl)-2-((3bS,4aR)-3-(difluoromethyl)-5,5-difluoro-3b,4,4a,5-tetrahydro-1H-cyclopropa[3,4]cyclopenta[1,2-c]pyrazol-1-yl)acetamide]
[1]
  EC50: 0.115 nM
[2]
  CC50 at 4 day: > 1000 nM

## CS(=O)(=O)Nc1nn(CC(F)F)c2c(-n3c([C@H](Cc4cc(F)cc(F)c4)NC(=O)Cn4nc(C(F)F)c5c4C(F)(F)[C@@H]4C[C@H]54)nc4cc(CCC(F)(F)F)ccc4c3=O)ccc(Cl)c12 [Example 23, N—((S)-1-(3-(4-chloro-1-(2,2-difluoroethyl)-3-(methylsulfonamido)-1H-indazol-7-yl)-4-oxo-7-(3,3,3-trifluoropropyl)-3,4-dihydroquinazolin-2-yl)-2-(3,5-difluorophenyl)ethyl)-2-((3bS,4aR)-3-(difluoromethyl)-5,5-difluoro-3b,4,4a,5-tetrahydro-1H-cyclopropa[3,4]cyclopenta[1,2-c]pyrazol-1-yl)acetamide]
[1]
  EC50: 0.094 nM
[2]
  CC50 at 4 day: > 1000 nM

## CC(F)(F)c1ccc2c(=O)n(-c3ccc(Cl)c4c(NS(=O)(=O)C5CC5)nn(CC(F)F)c34)c([C@H](Cc3cc(F)cc(F)c3)NC(=O)Cn3nc(C(F)F)c4c3C(F)(F)[C@@H]3C[C@H]43)nc2c1 [Example 18, N—((S)-1-(3-(4-chloro-3-(cyclopropanesulfonamido)-1-(2,2-difluoroethyl)-1H-indazol-7-yl)-7-(1,1-difluoroethyl)-4-oxo-3,4-dihydroquinazolin-2-yl)-2-(3,5-difluorophenyl)ethyl)-2-((3bS,4aR)-3-(difluoromethyl)-5,5-difluoro-3b,4,4a,5-tetrahydro-1H-cyclopropa[3,4]cyclopenta[1,2-c]pyrazol-1-yl)acetamide]
[1]
  EC50: 0.069 nM
[2]
  CC50 at 4 day: > 1000 nM

## Cn1nc(NS(C)(=O)=O)c2c(Cl)ccc(-n3c([C@H](Cc4cc(F)cc(F)c4)NC(=O)Cn4nc(C(F)F)c5c4C(F)(F)[C@@H]4C[C@H]54)nc4cc(O)ccc4c3=O)c21 [Example 4, N—((S)-1-(3-(4-chloro-1-methyl-3-(methylsulfonamido)-1H-indazol-7-yl)-7-hydroxy-4-oxo-3,4-dihydroquinazolin-2-yl)-2-(3,5-difluorophenyl)ethyl)-2-((3bS,4aR)-3-(difluoromethyl)-5,5-difluoro-3b,4,4a,5-tetrahydro-1H-cyclopropa[3,4]cyclopenta[1,2-c]pyrazol-1-yl)acetamide]
[1]
  EC50: 0.273 nM
[2]
  CC50 at 4 day: > 1000 nM

## COc1ccc2c(=O)n(-c3ccc(Cl)c4c(NS(C)(=O)=O)nn(C)c34)c([C@H](Cc3cc(F)cc(F)c3)NC(=O)Cn3ccc(C(C)C)n3)nc2c1 [Example 5, (S)—N-(1-(3-(4-chloro-1-methyl-3-(methylsulfonamido)-1H-indazol-7-yl)-7-methoxy-4-oxo-3,4-dihydroquinazolin-2-yl)-2-(3,5-difluorophenyl)ethyl)-2-(3-isopropyl-1H-pyrazol-1-yl)acetamide]
[1]
  EC50: 0.758 nM
[2]
  CC50 at 4 day: > 1000 nM

## CC(C)Oc1ccc2c(=O)n(-c3ccc(Cl)c4c(NS(C)(=O)=O)nn(C)c34)c([C@H](Cc3cc(F)cc(F)c3)NC(=O)Cn3nc(C(F)F)c4c3C(F)(F)[C@@H]3C[C@H]43)nc2c1 [Example 10, N—((S)-1-(3-(4-chloro-1-methyl-3-(methylsulfonamido)-1H-indazol-7-yl)-7-isopropoxy-4-oxo-3,4-dihydroquinazolin-2-yl)-2-(3,5-difluorophenyl)ethyl)-2-((3bS,4aR)-3-(difluoromethyl)-5,5-difluoro-3b,4,4a,5-tetrahydro-1H-cyclopropa[3,4]cyclopenta[1,2-c]pyrazol-1-yl)acetamide]
[1]
  EC50: 0.107 nM
[2]
  CC50 at 4 day: > 1000 nM

## COc1cc(F)c2c(=O)n(-c3ccc(Cl)c4c(NS(=O)(=O)C5CC5)nn(CC(F)F)c34)c([C@H](Cc3cc(F)cc(F)c3)NC(=O)Cn3nc(C(F)F)c4c3C(F)(F)[C@@H]3C[C@H]43)nc2c1 [Example 8, N—((S)-1-(3-(4-chloro-3-(cyclopropanesulfonamido)-1-(2,2-difluoroethyl)-1H-indazol-7-yl)-5-fluoro-7-methoxy-4-oxo-3,4-dihydroquinazolin-2-yl)-2-(3,5-difluorophenyl)ethyl)-2-((3bS,4aR)-3-(difluoromethyl)-5,5-difluoro-3b,4,4a,5-tetrahydro-1H-cyclopropa[3,4]cyclopenta[1,2-c]pyrazol-1-yl)acetamide]
[1]
  EC50: 0.15 nM
[2]
  CC50 at 4 day: > 1000 nM

## Cn1nc(NS(C)(=O)=O)c2c(Cl)ccc(-n3c([C@H](Cc4cc(F)cc(F)c4)NC(=O)Cn4nc(C(F)F)c5c4C(F)(F)[C@@H]4C[C@H]54)nc4cc(C5CCCC5)ccc4c3=O)c21 [Example 32, N—((S)-1-(3-(4-chloro-1-methyl-3-(methylsulfonamido)-1H-indazol-7-yl)-7-cyclopentyl-4-oxo-3,4-dihydroquinazolin-2-yl)-2-(3,5-difluorophenyl)ethyl)-2-((3bS,4aR)-3-(difluoromethyl)-5,5-difluoro-3b,4,4a,5-tetrahydro-1H-cyclopropa[3,4]cyclopenta[1,2-c]pyrazol-1-yl)acetamide]
[1]
  EC50: 0.285 nM
[2]
  CC50 at 4 day: > 1000 nM

## CS(=O)(=O)Nc1nn(CC(F)F)c2c(-n3c([C@H](Cc4cc(F)cc(F)c4)NC(=O)Cn4nc(C(F)F)c5c4C(F)(F)[C@@H]4C[C@H]54)nc4cc(C5CC5)ccc4c3=O)ccc(Cl)c12 [Example 30, N—((S)-1-(3-(4-chloro-1-(2,2-difluoroethyl)-3-(methylsulfonamido)-1H-indazol-7-yl)-7-cyclopropyl-4-oxo-3,4-dihydroquinazolin-2-yl)-2-(3,5-difluorophenyl)ethyl)-2-((3bS,4aR)-3-(difluoromethyl)-5,5-difluoro-3b,4,4a,5-tetrahydro-1H-cyclopropa[3,4]cyclopenta[1,2-c]pyrazol-1-yl)acetamide]
[1]
  EC50: 0.097 nM
[2]
  CC50 at 4 day: > 1000 nM
